# From US8399419B2, “Antibacterial aminoglycoside analogs” (Achaogen, Inc., priority 2008, dated 2013)
# Assays:
# E. coli ATCC 25922 = assay: MIC assay (CLSI broth microdilution), AECO001; assay type: cell-based; conditions: Escherichia coli; AECO001 is ATCC25922 (E. coli); Mueller Hinton Broth, 35 C, 20 hours
# Procedure: (§1) Minimum inhibitory concentrations (MIC) were determined by reference Clinical and Laboratory Standards Institute (CLSI) broth microdilution methods per M7-A7 [2006]. Quality control ranges utilizing E. coli ATCC 25922, P. aeruginosa ATCC 27853 and S. aureus ATCC 29213, and interpretive criteria for comparator agents were as published in CLSI M100-S17 [2007]. Briefly, serial two-fold dilutions of the test compounds were prepared at 2× concentration in Mueller Hinton Broth. The compound dilutions were mixed in 96-well assay plates in a 1:1 ratio with bacterial inoculum. The inoculum was prepared by suspension of a colony from an agar plate that was prepared the previous day. Bacteria were suspended in sterile saline and added to each assay plate to obtain a final concentration of 5×10^5 CFU/mL. The plates were incubated at 35 C for 20 hours in ambient air.
# P. aeruginosa ATCC 27853 = assay: MIC assay (CLSI broth microdilution), APAE001; assay type: cell-based; conditions: Pseudomonas aeruginosa; APAE001 is ATCC27853 (P. aeruginosa); Mueller Hinton Broth, 35 C, 20 hours
# Procedure: as §1
MIC (E. coli ATCC 25922) [µg/mL],MIC (P. aeruginosa ATCC 27853) [µg/mL],Structure (SMILES)
1 to 16,≤ 1,"NC[C@@H]1CC[C@@H](N)[C@@H](O[C@H]2[C@H](O[C@@H]3O[C@H](CO)[C@@H](O[C@H]4O[C@@H](CN)CC[C@H]4N)[C@H]3O)[C@@H](O)[C@H](NC(=O)[C@H](O)[C@H](O)CN)C[C@@H]2N)O1 [Example 29/Compound 6, 3′,4′,3′″,4′″-tetra-deoxy-1-(4-amino-3,2-(R,R)-bis-hydroxy-butyryl)-neomycin]"
1 to 16,1 to 16,"NC[C@@H]1CC[C@@H](N)[C@@H](O[C@H]2[C@H](O[C@@H]3O[C@H](CO)[C@@H](O[C@H]4O[C@@H](CN)CC[C@H]4N)[C@H]3O)[C@@H](O)[C@H](NC(CO)CO)C[C@@H]2N)O1 [Example 21/Compound 3, 3′,4′,3′″,4′″-tetra-deoxy-1-(2-hydroxy-1-hydroxymethyl-ethyl)-neomycin]"
1 to 16,≤ 1,"NC[C@@H]1CC[C@@H](N)[C@@H](O[C@H]2[C@H](O[C@@H]3O[C@H](CO)[C@@H](O[C@H]4O[C@@H](CN)CC[C@H]4N)[C@H]3O)[C@@H](O)[C@H](NCC(O)CO)C[C@@H]2N)O1 (stereo partly shown) [Example 18/Compound 3, 3′,4′,3′″,4′″-tetra-deoxy-1-(2,3-bis-hydroxy-propyl)-neomycin]"

# Second part, the compound before the results:
Structure (SMILES),MIC (E. coli ATCC 25922) [µg/mL],MIC (P. aeruginosa ATCC 27853) [µg/mL]
"N=C(N)NCC[C@H](O)C(=O)N[C@@H]1C[C@H](N)[C@@H](O[C@H]2O[C@H](CN)CC[C@H]2N)[C@H](O[C@@H]2O[C@H](CO)[C@@H](O[C@H]3O[C@@H](CN)CC[C@H]3N)[C@H]2O)[C@H]1O [Example 17/Compound 4, 3′,4′,3′″,4′″-tetra-deoxy-1-(2(S)-hydroxy-4-guanidino-butyryl)-neomycin]",1 to 16,≤ 1
"NCC(O)CN[C@@H]1C[C@H](N)[C@@H](O[C@H]2O[C@H](CN)CC[C@H]2N)[C@H](O[C@@H]2O[C@H](CO)[C@@H](O[C@H]3O[C@@H](CN)CC[C@H]3N)[C@H]2O)[C@H]1O (stereo partly shown) [Example 12/Compound 3, 3′,4′,3′″,4′″-tetra-deoxy-1-(2-hydroxy-3-amino-propyl)-neomycin]",1 to 16,≤ 1
